Source: US20250059188A1, “ARYLSULPHONAMIDE COMPOUNDS” (Anaxis Pharma Pty Ltd, priority 2021, published 2025)

Experiments:
[1] = test system: U937 human histiocytic leukemia cell line; test: Inhibition of TSQ induced necroptosis in U937 cells (CellTitre-Glo); conditions: Homo sapiens, U-937, TSQ cocktail (TNF, Smac mimetic, Q-VD-OPh), 48 hours, read-out: Inhibition of TSQ-induced necroptosis (IC50 cell-based assay)
Summary of the method: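 U937 cells (20000/well) treated with compound (10-point, 1:3 from 36 μM, 0.3% DMSO) plus TSQ cocktail (hTNF-Fc 100 ng/ml, Smac mimetic 500 nM, Q-VD-OPh 10 μM), 48 h at 37 °C. Viability by CellTiter-Glo luminescence; IC50 from 4-parameter logistic fit. Counter screen: same cells without TSQ.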

U937 cells = test: Counter screen: U937 cell viability without TSQ cocktail (off-target effect); design: species or system human; conditions: Homo sapiens, U-937, compound without TSQ cocktail, read-out: Off-target effect (IC50 cell-based assay)
Summary of the method: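 U937 cells (20,000/well) exposed to compound (10-point 1:3 titration from 36 μM, 0.3% DMSO) without TSQ cocktail for 48 h at 37 °C/5% CO2. Viability read as ATP by CellTiter-Glo luminescence; IC50 from 4-parameter logistic fit.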

SMILES	IC50 [1]	IC50 (U937 cells)
C[C@H](Oc1cc(-c2nn(C)c3c(-c4cnn(C(C)(C)CO)c4)cnc(N)c23)ccc1NS(=O)(=O)C(F)F)c1ccc(F)cc1 [Compound 97, (S)-N-(4-(4-amino-7-(1-(1-hydroxy-2-methylpropan-2-yl)-1H-pyrazol-4-yl)-1-methyl-1H-pyrazolo[4,3-c]pyridin-3-yl)-2-(1-(4-fluorophenyl)ethoxy)phenyl)-1,1-difluoromethanesulfonamide]	10 to 1000 nM	> 10000 nM
C[C@H](Oc1cc(-c2nn(C)c3c(-c4cnn(C5(CC#N)COC5)c4)cnc(N)c23)ccc1NS(=O)(=O)C(F)F)c1ccc(F)cc1 [Compound 98, (S)-N-(4-(4-amino-7-(1-(3-(cyanomethyl)oxetan-3-yl)-1H-pyrazol-4-yl)-1-methyl-1H-pyrazolo[4,3-c]pyridin-3-yl)-2-(1-(4-fluorophenyl)ethoxy)phenyl)-1,1-difluoromethanesulfonamide]	10 to 1000 nM	> 10000 nM
C[C@H](Oc1cc(-c2nn(C)c3c(-c4cnn(C5CC6(C5)CN(C)C6)c4)cnc(N)c23)ccc1NS(=O)(=O)C(F)F)c1ccc(F)cc1 [Compound 99, (S)-N-(4-(4-amino-1-methyl-7-(1-(2-methyl-2-azaspiro[3.3]heptan-6-yl)-1H-pyrazol-4-yl)-1H-pyrazolo[4,3-c]pyridin-3-yl)-2-(1-(4-fluorophenyl)ethoxy)phenyl)-1,1-difluoromethanesulfonamide]	10 to 1000 nM	> 10000 nM
[2H]C([2H])([2H])N1CCC(n2cc(-c3cnc(N)c4c(-c5ccc(NS(=O)(=O)C(F)F)c(O[C@@H](C)c6ccc(F)cc6)c5)nn(C)c34)cn2)CC1 [Compound 103]	< 10 nM	> 10000 nM
C[C@H](Oc1cc(-c2nn(C)c3c(-c4cnn(C5CCC(C)(C)N(C)C5)c4)cnc(N)c23)ccc1NS(=O)(=O)C(F)F)c1ccc(F)cc1 (stereo partly shown) [Compound 104, N-(4-{4-amino-1-methyl-7-[1-(1,6,6-trimethylpiperidin-3-yl)-1H-pyrazol-4-yl]-1H-pyrazolo[4,3-c]pyridin-3-yl}-2-[(1 S)-1-(4-fluorophenyl)ethoxy]phenyl)-1,1-difluoromethanesulfonamide]	< 10 nM	> 10000 nM
CC(=O)N1CCC(n2cc(-c3cnc(N)c4c(-c5ccc(NS(=O)(=O)C(F)F)c(O[C@@H](C)c6ccc(F)cc6)c5)nn(C)c34)cn2)CC1 [Compound 109, (S)—N-(4-(7-(1-(1-acetylpiperidin-4-yl)-1H-pyrazol-4-yl)-4-amino-1-methyl-1H-pyrazolo[4,3-c]pyridin-3-yl)-2-(1-(4-fluorophenyl)ethoxy)phenyl)-1,1-difluoromethanesulfonamide]	< 10 nM	> 10000 nM
C[C@H](Oc1cc(-c2nn(C)c3c(-c4cnn(CC(F)(F)F)c4)cnc(N)c23)ccc1NS(=O)(=O)C(F)F)c1ccc(F)cc1 [Compound 116, (S)-N-(4-(4-amino-1-methyl-7-(1-(2,2,2-trifluoroethyl)-1H-pyrazol-4-yl)-1H-pyrazolo[4,3-c]pyridin-3-yl)-2-(1-(4-fluorophenyl)ethoxy)phenyl)-1,1-difluoromethanesulfonamide]	< 10 nM	> 10000 nM
C[C@H](Oc1cc(-c2nn(C)c3c(-c4cnn(C5CCC(F)(F)C5)c4)cnc(N)c23)ccc1NS(=O)(=O)C(F)F)c1ccc(F)cc1 (stereo partly drawn) [Compound 120, N-(4-{4-amino-7-[1-(3,3-difluorocyclopentyl)-1H-pyrazol-4-yl]-1-methyl-1H-pyrazolo[4,3-c]pyridin-3-yl}-2-[(1S)-1-(4-fluorophenyl)ethoxy]phenyl)-1,1-difluoromethanesulfonamide]	< 10 nM	> 10000 nM
C[C@@H](Oc1cc(-c2nn(C)c3c(-c4cnn(C5CCOCC5)c4)cnc(N)c23)ccc1NS(=O)(=O)C(F)F)c1ccc(F)cc1 [Compound 121, (R)-N-(4-(4-amino-1-methyl-7-(1-(tetrahydro-2H-pyran-4-yl)-1H-pyrazol-4-yl)-1H-pyrazolo[4,3-c]pyridin-3-yl)-2-(1-(4-fluorophenyl)ethoxy)phenyl)-1,1-difluoromethanesulfonamide]	10 to 1000 nM	> 10000 nM
C[C@H](Oc1cc(-c2nn(C)c3c(-c4cnn(C5CCOCC5)c4)cnc(N)c23)ccc1NS(=O)(=O)C(F)F)c1cccc(Cl)c1 [Compound 122, (S)-N-(4-(4-amino-1-methyl-7-(1-(tetrahydro-2H-pyran-4-yl)-1H-pyrazol-4-yl)-1H-pyrazolo[4,3-c]pyridin-3-yl)-2-(1-(3-chlorophenyl)ethoxy)phenyl)-1,1-difluoromethanesulfonamide]	10 to 1000 nM	> 10000 nM
C[C@H](Oc1cc(-c2nn(C)c3c(-c4cnn(CCC(F)(F)F)c4)cnc(N)c23)ccc1NS(=O)(=O)C(F)F)c1ccc(F)cc1 [Compound 131, (S)-N-(4-(4-amino-1-methyl-7-(1-(3,3,3-trifluoropropyl)-1H-pyrazol-4-yl)-1H-pyrazolo[4,3-c]pyridin-3-yl)-2-(1-(4-fluorophenyl)ethoxy)phenyl)-1,1-difluoromethanesulfonamide]	10 to 1000 nM	> 10000 nM
Cn1nc(-c2ccc(NS(=O)(=O)C(F)F)c(OCc3ccc(Cl)c(F)c3)c2)c2c(N)ncc(-c3cnn(C4CCOCC4)c3)c21 [Compound 132, N-(4-(4-amino-1-methyl-7-(1-(tetrahydro-2H-pyran-4-yl)-1H-pyrazol-4-yl)-1H-pyrazolo[4,3-c]pyridin-3-yl)-2-((4-chloro-3-fluorobenzyl)oxy)phenyl)-1,1-difluoromethanesulfonamide]	10 to 1000 nM	> 10000 nM
COCC(Oc1cc(-c2nn(C)c3c(-c4cnn(C5CCN(C)CC5)c4)cnc(N)c23)ccc1NS(=O)(=O)C(F)F)c1ccc(F)cc1 (stereo not shown) [Compound 139, N-(4-(4-amino-1-methyl-7-(1-(1-methylpiperidin-4-yl)-1H-pyrazol-4-yl)-1H-pyrazolo[4,3-c]pyridin-3-yl)-2-(1-(4-fluorophenyl)-2-methoxyethoxy)phenyl)-1,1-difluoromethanesulfonamide]	10 to 1000 nM	> 10000 nM
CC(n1cc(-c2cnc(N)c3c(-c4ccc(NS(=O)(=O)C(F)F)c(O[C@@H](C)c5ccc(F)cc5)c4)nn(C)c23)cn1)C(F)(F)F (stereo partly drawn) [Compound 142, N-(4-(4-amino-1-methyl-7-(1-(1,1,1-trifluoropropan-2-yl)-1H-pyrazol-4-yl)-1H-pyrazolo[4,3-c]pyridin-3-yl)-2-((S)-1-(4-fluorophenyl)ethoxy)phenyl)-1,1-difluoromethanesulfonamide]	10 to 1000 nM	> 10000 nM
C[C@H](Oc1cc(-c2nn(C)c3c(-c4cnn(C5CCN(C)C6(CC6)C5)c4)cnc(N)c23)ccc1NS(=O)(=O)C(F)F)c1ccc(F)cc1 (stereo partly drawn) [Compound 145, N-(4-(4-amino-1-methyl-7-(1-(4-methyl-4-azaspiro[2.5]octan-7-yl)-1H-pyrazol-4-yl)-1H-pyrazolo[4,3-c]pyridin-3-yl)-2-((S)-1-(4-fluorophenyl)ethoxy)phenyl)-1,1-difluoromethanesulfonamide]	< 10 nM	> 10000 nM
C[C@H](Oc1cc(-c2nn(C)c3c(-c4cnn(C5CCC(F)(F)CC5)c4)cnc(N)c23)ccc1NS(=O)(=O)C(F)F)c1ccc(F)cc1 [Compound 146, (S)-N-(4-(4-amino-7-(1-(4,4-difluorocyclohexyl)-1H-pyrazol-4-yl)-1-methyl-1H-pyrazolo[4,3-c]pyridin-3-yl)-2-(1-(4-fluorophenyl)ethoxy)phenyl)-1,1-difluoromethanesulfonamide]	< 10 nM	> 10000 nM
CC1C(n2cc(-c3cnc(N)c4c(-c5ccc(NS(=O)(=O)C(F)F)c(O[C@@H](C)c6ccc(F)cc6)c5)nn(C)c34)cn2)CN1C (stereo partly drawn) [Compound 147, N-(4-(4-amino-7-(1-(1,2-dimethylazetidin-3-yl)-1H-pyrazol-4-yl)-1-methyl-1H-pyrazolo[4,3-c]pyridin-3-yl)-2-((S)-1-(4-fluorophenyl)ethoxy)phenyl)-1,1-difluoromethanesulfonamide]	10 to 1000 nM	> 10000 nM
C[C@H](Oc1cc(-c2nn(C)c3c(-c4cnn(C5CCN(C)C(C(F)(F)F)C5)c4)cnc(N)c23)ccc1NS(=O)(=O)C(F)F)c1ccc(F)cc1 (stereo partly drawn) [Compound 148, N-(4-(4-amino-1-methyl-7-(1-(1-methyl-2-(trifluoromethyl)piperidin-4-yl)-1H-pyrazol-4-yl)-1H-pyrazolo[4,3-c]pyridin-3-yl)-2-((S)-1-(4-fluorophenyl)ethoxy)phenyl)-1,1-difluoromethanesulfonamide]	< 10 nM	> 10000 nM
C[C@H](Oc1cc(-c2nn(C)c3c(-c4cnn(C5CC6CCC(C5)N6CC(F)(F)F)c4)cnc(N)c23)ccc1NS(=O)(=O)C(F)F)c1ccc(F)cc1 (stereo partly drawn) [Compound 153, N-(4-(4-amino-1-methyl-7-(1-(8-(2,2,2-trifluoroethyl)-8-azabicyclo[3.2.1]octan-3-yl)-1H-pyrazol-4-yl)-1H-pyrazolo[4,3-c]pyridin-3-yl)-2-((S)-1-(4-fluorophenyl)ethoxy)phenyl)-1,1-difluoromethanesulfonamide]	10 to 1000 nM	> 10000 nM
Cc1c(-c2cnc(N)c3c(-c4ccc(NS(=O)(=O)C(F)F)c(O[C@@H](C)c5ccc(F)cc5)c4)nn(C)c23)cnn1C1CCN(C)C(C)(C)C1 (stereo partly drawn) [Compound 157, N-(4-(4-amino-1-methyl-7-(5-methyl-1-(1,2,2-trimethylpiperidin-4-yl)-1H-pyrazol-4-yl)-1H-pyrazolo[4,3-c]pyridin-3-yl)-2-((S)-1-(4-fluorophenyl)ethoxy)phenyl)-1,1-difluoromethanesulfonamide]	10 to 1000 nM	> 10000 nM
